These results are taken from PMC6010133, “Synthesis and biological evaluation of N-arylpiperazine derivatives of 4,4-dimethylisoquinoline-1,3(2H,4H)-dione as potential antiplatelet agents” (Journal of Enzyme Inhibition and Medicinal Chemistry, 2018).

In general, Ki refers to a dissociation constant, usually derived from enzyme kinetics or from competition with a known ligand. What is called IC50 is the concentration needed to halve the response being measured. As usually defined, the half-life is how long it takes for the measured level to halve. The term solubility denotes how much of the substance goes into solution per volume. Read a low solubility as a poorly soluble substance. The term Papp A→B denotes the apparent permeability from the apical to the basolateral side of a cell layer. A higher Papp A→B goes with ready permeation. The Papp B→A is how fast a substance crosses the layer from the basolateral side.

Data set [1] has as its target alpha 1-ARs. Nature of the data set: Radioligand binding assay, displacement of [3H]prazosin on rat cerebral cortex. As to conditions: read-out: Affinity for alpha 1-ARs Ki ± SD. Here is the method: The affinity of the obtained compounds was evaluated by radioligand binding assays (the ability to displace [3H] prazosin and [3H]clonidine from a1- and a2-AR, respectively) on rat cerebral cortex. The brains are homogenised in 20 volumes of an ice-cold 50 mM Tris–HCl buffer (pH 7.6) and is centrifuged at 20,000 g for 20 min (0–4 °C). The cell pellet is resus-pended in the Tris–HCl buffer and centrifuged again. Radioligand binding assays are performed in plates (MultiScreen/Millipore). The final incubation mixture (final volume 300 μL) consisted of 240 µl of the membrane suspension, 30 μL of [3H]prazosin (0.2 nM) or [3H]clonidine (2 nM) solution and 30 μL of the buffer containing seven to eight concentrations (1.0^−11 to 1.0^−4 M) of the tested compounds. For measuring the unspecific binding, phentolamine, 10 µM (in the case of [3H]prazosin) and clonidine, 10 μM (in the case of [3H]clonidine) are applied. The incubation is terminated by rapid filtration over glass fiber filters (Whatman GF/C) using a vacuum manifold (Millipore). The filters are then washed twice with the assay buffer and placed in scintillation vials with a liquid scintillation cocktail. Radioactivity was measured in a WALLAC 1409 DSA liquid scintillation counter. All the assays were performed in duplicate.
Subsequently, we determined the selectivity vs. alpha 1-adrenoreceptor (Table 4). The final compounds 3–11 were submitted to a radioligand binding assay, measuring the ability to displace [^3H] prazosin from alpha 1-ARs, in the rat cerebral cortex. […] On the other hand, the introduction of a hydrophobic group into meta position of the phenylpiperazine ring (3, 4, 5, 6) caused a relatively weaker decrease. […] The incorporation of a bulky substituents such as; 2,2-dimethylbenzo[d][1,3]dioxole (9), benzo[d]oxazol-2(3H)-one (10), 2H-benzo[b][1,4]oxazin-3(4H)-one (11) maintained the affinity for alpha1-ARs.
For orientation: Displacement assays read how much labelled ligand stays bound in the presence of the test substance.

For data set [2], the target named is T1, alpha 2B-AR (Homo sapiens, UniProt P18089).
T1 sequence (P18089 1-450): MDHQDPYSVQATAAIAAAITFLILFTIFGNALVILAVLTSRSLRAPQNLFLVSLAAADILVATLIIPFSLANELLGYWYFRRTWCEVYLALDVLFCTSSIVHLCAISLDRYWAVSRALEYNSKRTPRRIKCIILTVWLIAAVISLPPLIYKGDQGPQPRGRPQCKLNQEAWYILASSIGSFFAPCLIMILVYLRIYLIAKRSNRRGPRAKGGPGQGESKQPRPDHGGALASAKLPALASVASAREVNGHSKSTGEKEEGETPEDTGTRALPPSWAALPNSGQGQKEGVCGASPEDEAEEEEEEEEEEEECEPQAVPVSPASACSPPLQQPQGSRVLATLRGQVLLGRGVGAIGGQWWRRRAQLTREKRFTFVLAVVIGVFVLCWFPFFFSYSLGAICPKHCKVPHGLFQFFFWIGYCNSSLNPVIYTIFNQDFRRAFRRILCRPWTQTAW
Nature of the data set: Intrinsic activity assay, antagonist mode, cells with stable expression of the α2B-adrenoceptor. Format: cell-based. As to conditions: antagonist potency, read-out: Antagonist mode (IC50 ± SEM). Here is the method:
An intrinsic activity assay was performed according to the instructions of the manufacturer of the assay kit containing ready-to-use cells with stable expression of the α2A-adrenoceptor (In-vitrogen, Life Technologies, Carlsbad, CA, USA) or α2B-adrenoceptor (PerkinElmer, Inc, Waltham, MA, USA).
Considering that a potent blockade of alpha 2B-ARs is required for the antiplatelet effect[8] ^, [9] we began an assessment of a pharmacological profile of all the synthesized molecules (3–11) with the evaluation of their alpha 2B-ARs antagonistic properties.

The subject of data set [3] is whole rat blood aggregation induced by collagen. Put plainly: In vitro whole blood aggregation test induced by collagen (Multiplate). The class given is cell-based. The settings on record: for anti-platelet efficacy at lower concentration: compound at 30 μM; for IC50: whole rat blood, collagen 1.6 µg/mL. The protocol:
(§1) In vitro aggregation tests were conducted using freshly collected whole blood with Multiplate platelet function analyzer (Roche Diagnostics Polska Sp. z o.o., Warsaw, Poland), the five-channel aggregometer based on measurements of electric impedance. The Multiplate analyzer allows the duplicate measurement with dual electrode probes. Blood was drawn from carotid of rats with hirudin blood tube (Roche Diagnostic). 300 μL of hirudin anticoagulated blood was mixed with 300 μL pre-warmed isotonic saline solution containing studied compound in DMSO or DMSO (0.1% final) and pre-incubated for 3 min at 37 °C with continuous stirring. The agonists (ADPtest, COLtest, Roche Diagnostic) were diluted using isotonic sterile NaCl solution. Aggregation was induced by adding collagen (final concentration 1.6 µg/mL), or adrenaline and subthreshod concentration of ADP (final concentration 50 µM + 1.6 µM). Activated platelet function was recorded for 6 min. The Multiplate software analyzed the area under the curve of the clotting process of each measurement and calculated the mean values.
(§2) Data were presented as Mean ± SEM. Statistical comparisons were made by the analysis of variance (ANOVA) and significance of the differences between control group and treated groups was determined by Dunnet post hoc test. p < .05 was considered significant.
(§3) Based on the aforementioned results, the most interesting compounds (3, 4, 9, and 10) were selected for further studies. In order to evaluate the anti-platelet effects of the new compounds in vitro, freshly isolated rat whole blood was incubated with selected compounds (3–100 μM) or vehicle (DMSO), and the aggregation responses were evaluated with multiplate whole blood aggregometer by measuring impedance change. Platelet aggregation was induced by collagen or sub-threshold concentration of ADP and adrenaline. ARC-239 was used as a reference compound.

Data set [4] relates to whole rat blood aggregation induced by ADP and adrenaline. Nature of the data set: In vitro whole blood aggregation test induced by ADP and adrenaline (Multiplate). The class given is cell-based. The settings on record: for IC50: whole rat blood, ADP and adrenaline 1.6 µM + 50 µM, read-out: B (ADP + A) IC50. Here is the method: as §1, §2, §3
Combining adrenaline with the sub-threshold concentration of ADP produced a maximal aggregation response. The adrenaline-mediated amplification of ADP-stimulated aggregation was attenuated when rat blood was pre-incubated with 3, 9, 10, and ARC-239.

Data set [5] in a line: Metabolic stability (liver microsomes, human). Format: in vitro ADME. The protocol: (§4) The in vitro bioavailability assays were performed by Eurofins Panlabs Inc. (St Charles, USA) according to the methods reported in publications listed below:
Microsomal stability: Obach, R.S et al. (1997) J Pharmacol Exp Ther, 283:[…][35].
(§5) Concerning the described above results, for the most promising compound 3, we performed early in vitro bioavailability assays, including aqueous solubility, human plasma protein binding, human liver microsomes stability, and Caco-2 permeability (Eurofins Bioavailability panel).

A short description of data set [6]: Aqueous solubility (Eurofins bioavailability panel). Format: physicochemical. The settings on record: kinetic from dmso stock. The protocol: as §4
Solubility: Lipinski, C.A et al. (2001) Adv Drug Del Rev, 46:3–26[32],
as §5

Data set [7] is described as follows: Caco-2 permeability. The settings on record: human; Caco-2, pH 6.5/7.4; 1.0E-05 M. The class given is in vitro ADME. The protocol:
as §4
Caco-2 permeability: Hidalgo, I.J et al. (1989) Gastroenterology, 96:736–749[34],
as §5
(Passage across Caco-2 layers is used to estimate intestinal permeability.)

The nature of data set [8]: Protein binding (plasma, human). The class given is in vitro ADME. The settings on record: 1.0E-05 M. The protocol:
as §4
Protein binding: Banker, M.J et al. (2003) J. Pharm. Sci., 92:967–974[33],
as §5

Each structure is given as a SMILES string. ≈ marks a conversion by molar mass, not a printed value.

As for `CC1(C)C(=O)N(CCN2CCN(c3cccc(C(F)(F)F)c3)CC2)C(=O)c2ccccc21` [Compound 5, 4,4-Dimethyl-2–(2-(4–(3-(trifluoromethyl)phenyl)piperazin-1-yl)ethyl)isoquinoline-1,3(2H,4H)-dione], the inhibition constant (Ki) in data set [1] worked out at 703 ± 1 nM. Further, the IC50 in data set [2] is greater than 1000 nM.

In the case of `CC1(C)Oc2cccc(N3CCN(CCN4C(=O)c5ccccc5C(C)(C)C4=O)CC3)c2O1` [Compound 9, 2–(2-(4–(2,2-Dimethylbenzo[d][1,3]dioxol-4-yl)piperazin-1-yl)ethyl)-4,4-dimethylisoquinoline-1,3(2H,4H)-dione], the Ki in data set [1] is 30 ± 0.2 nM. Further, in data set [3] (collagen-induced), the “anti-platelet efficacy at lower concentration” value is listed as “significant anti-platelet efficacies”. Moreover, the “platelet aggregation attenuated to” value in data set [3] (collagen-induced, compound at 100 μM) turned out to be 59.3%. The IC50 in data set [3] was 27400 ± 5300 nM; in data set [2], 47 ± 12.8 nM; in data set [4], 54400 ± 5400 nM.

`CC1(C)C(=O)N(CCN2CCN(c3cccc(F)c3)CC2)C(=O)c2ccccc21` [Compound 3, 2–(2-(4–(3-Fluorophenyl)piperazin-1-yl)ethyl)-4,4-dimethylisoquinoline-1,3(2H,4H)-dione] showed a half-life at 100 nM in data set [5] (1.0E-07 M) of 14.1 min. The microsomal CLint at 100 nM in data set [5] (1.0E-07 M, read-out: Intrinsic clearance) came out at 14 µL/min/mg. For the same compound, the “% Compound remaining” value in data set [5] (incubation time 0 minutes) is recorded as 100.0%; in data set [5] (incubation time 15 minutes), 49%; in data set [5] (incubation time 30 minutes) it was 18%; in data set [5] (incubation time 45 minutes) it was 8%; in data set [5] (incubation time 60 minutes), 6%. Further, the solubility in data set [6] (PBS, pH 7.4, aqueous buffer) is 5.4 µM (≈ 2.14 µg/mL); in data set [6] (fassgf or other biorelevant, simulated intestinal fluid, test concentration 2.0E-04 M) it was 68 µM (≈ 26.9 µg/mL); in data set [6] (simulated gastric fluid), 151 µM (≈ 59.7 µg/mL). In addition, the Ki in data set [1] came to 30 ± 1 nM. Further, in data set [7], the Papp A→B at 10 µM turned out to be 7.7 ×10⁻⁶ cm/s. Further, the Papp B→A at 10 µM in data set [7] is 2.6 ×10⁻⁶ cm/s. In addition, in data set [3] (collagen-induced), the “anti-platelet efficacy at lower concentration” value was “significant anti-platelet efficacies”. In addition, the IC50 in data set [3] turned out to be 26900 ± 18800 nM; in data set [2] it was 61 ± 25.4 nM; in data set [4], 20500 ± 7100 nM. Also, the “% Protein bound” value in data set [8] is reported as 99%.

On to `COc1cccc(N2CCN(CCN3C(=O)c4ccccc4C(C)(C)C3=O)CC2)c1` [Compound 6, 2–(2-(4–(3-Methoxyphenyl)piperazin-1-yl)ethyl)-4,4-dimethylisoquinoline-1,3(2H,4H)-dione], for which, in data set [1], the Ki was found to be 78.4 ± 3.8 nM. Also, the half-inhibitory concentration (IC50) in data set [2] was greater than 1000 nM.

Take `CC1(C)C(=O)N(CCN2CCN(c3ncccn3)CC2)C(=O)c2ccccc21` [Compound 8, 4,4-Dimethyl-2–(2-(4-(pyrimidin-2-yl)piperazin-1-yl)ethyl)isoquinoline-1,3(2H,4H)-dione]: in data set [1], the Ki came out at 1500 ± 100 nM. Also, the IC50 in data set [2] was greater than 1000 nM.

`CC1(C)C(=O)N(CCN2CCN(c3cccc(O)c3)CC2)C(=O)c2ccccc21` [Compound 7, 2–(2-(4–(3-hydroxyphenyl)piperazin-1-yl)ethyl)-4,4-dimethylisoquinoline-1,3(2H,4H)-dione]: the Ki in data set [1] came out at 81.7 ± 5.5 nM. For the same compound, in data set [2], the IC50 was 758 ± 160 nM.

As for `CC1(C)C(=O)N(CCN2CCN(c3cccc4[nH]c(=O)oc34)CC2)C(=O)c2ccccc21` [Compound 10, 4,4-Dimethyl-2–(2-(4–(2-oxo-2,3-dihydrobenzo[d]oxazol-7-yl)piperazin-1-yl)ethyl)isoquinoline-1,3(2H,4H)-dione], the Ki in data set [1] is 10.3 ± 0.3 nM. Moreover, the figures for the IC50 in data set [2] and in data set [4] were 61 ± 22.5 nM and 76500 ± 5800 nM, respectively.

As to `COc1ccccc1N1CCN(CCN2C(=O)c3ccccc3C(C)(C)C2=O)CC1` [ARC-239, reference compound], the Ki in data set [1] stood at 0.3 nM. Further, the IC50 in data set [3] turned out to be 20700 ± 14700 nM; in data set [2] it was 8.4 ± 3.2 nM; in data set [4], 63900 ± 21300 nM.

With `CC1(C)C(=O)N(CCN2CCN(c3cccc(Cl)c3)CC2)C(=O)c2ccccc21` [Compound 4, 2–(2-(4–(3-Chlorophenyl)piperazin-1-yl)ethyl)-4,4-dimethylisoquinoline-1,3(2H,4H)-dione], in data set [1], the Ki is 93 ± 2 nM. Further, in data set [3] (collagen-induced), the “anti-platelet efficacy at lower concentration” value is given as “significant anti-platelet efficacies”. The 50% inhibitory concentration (IC50) was found to be 34500 ± 2500 nM in data set [3] and 251 ± 71 nM in data set [2]. Besides, the “inhibition against ADP and adrenaline induced blood aggregation” value in data set [4] (up to 100 μM) was “did not exhibit any significant inhibition”.

Consider `CC1(C)C(=O)N(CCN2CCN(c3cccc4c3OCC(=O)N4)CC2)C(=O)c2ccccc21` [Compound 11, 4,4-Dimethyl-2–(2-(4–(3-oxo-3,4-dihydro-2H-benzo[b][1,4]oxazin-8-yl)piperazin-1-yl)ethyl)isoquinoline-1,3(2H,4H)-dione], for which the Ki in data set [1] is 3 ± 0.1 nM. Also, the IC50 in data set [2] is greater than 1000 nM.
